We go through two compounds from patent US20240219403A1, “METHODS FOR INHIBITING KRAS ONCOPROTEIN THROUGH ENHANCED GTPASE ACTIVITY” (Memorial Sloan-Kettering Cancer Center, priority 2021, published 2024).

For assay [1], the target named is T1, KRAS^G12C (Homo sapiens, UniProt P01116, G12C).
T1 construct: endogenous in cells; host or cells: H358, H2122, H2030, SW1573 (KRAS G12C-mutant lung cancer lines, ATCC)
Briefly: RAS-binding domain (RBD) pulldown of active (GTP-bound) KRAS in KRAS^G12C-mutant cell lines treated with G12C inhibitors. It counts as cell-based. On the procedure: This was performed as described previously (42) by using the RAS activation kit (Thermo Scientific). Briefly, 50 μg whole cell lysates were incubated with 40 μg GST-RBD and 100 μL glutathione beads for 60 min followed by three washes in NP40 wash buffer and elution of pull-down fractions with 2×SDS PAGE loading dye. The samples were then subjected to western blotting with a KRAS specific (WH0003845M1) antibody (43).

Assay [2] addresses T1, KRAS^G12C. Briefly: GTPase assays of purified GTP-loaded KRAS^G12C incubated with GAP proteins (γ-phosphate, α-phosphate, continuous phosphate release). It counts as biochemical. On the procedure: GTP[γ^32P] hydrolysis assay. KRAS proteins (0.5 μg) were reacted with 0.04 μM GTP[γ^32P] (6000 Ci/mmol; PerkinElmer Life Sciences) in 100 μL loading buffer (50 mM HEPES, pH 7.5, 50 mM NaCl, 1 mM DTT, 0.1 mM EGTA, 10 mM EDTA, and 1 mg/mL BSA) for 10 min at 30° C. (5, 40). Loading reactions were stopped by placing on ice and adding MgCl2 to a final concentration of 20 mM. The GTPase assays were performed at 30° C. in 100 μL mixtures containing 20 nM of loaded KRAS and either hydrolysis buffer (25 mM HEPES pH 7.5, 50 mM NaCl, 1 mM DTT, 1 mM MgCl2 and 1 mg/mL BSA) alone, or in combination with WCE or purified RGS3 (0.08-0.4 μg/μL). Equimolar comparisons of NF1, RASA1 and RGS3 were carried out using the continuous hydrolysis assay (see below). Reactions were stopped at the indicated time by filtering through 0.45-μm nitrocellulose membrane filters. The filters were washed 3 times with 0.2 mL of ice-cold hydrolysis buffer, air dried, and processed by autoradiography. Reaction rates were determined by fitting an exponential curve to the data, which was normalized to the baseline value. […]
Continuous hydrolysis assay (two-step detection of inorganic phosphate). […] The reaction was monitored by reading the absorbance at 360 nm every 10 to 20 s for ˜16-60 min at room temperature. […]

On to `C=CC(=O)N1CCN(c2nc(OC[C@@H]3CCCN3C)nc3c2CCN(c2cccc4cccc(C)c24)C3)C[C@@H]1CC#N` [MRTX1257], for which the figures for the “time required for maximal inhibition of KRAS in cells” value in assay [1] (media with 10% serum) and in assay [1] (serum-deprived media (suppresses nucleotide exchange)) were around 60 min and around 20 min, respectively.
As to “RGS3: regulator of G protein signaling 3, recombinant p75/p25 variants; GAP for Gαi/q subunit”, in assay [2], the “RGS3-assisted hydrolysis by KRAS^G12C slower than NF1-stimulated hydrolysis by KRAS^WT” value is recorded as 1-2 orders of magnitude. The “effect on GTP-hydrolysis by KRAS^G12C” value in assay [2] (purified proteins) is on record as “enhanced GTP-hydrolysis”.
